Assay results reported in ChEMBL document CHEMBL1201862, “PubChem BioAssay data set” (2004).
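All cell lines were grown in 96-well plates and treated with compound for 48 hours. GI50 is the concentration that inhibits growth by half.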 Calls of active or inactive are those of the source. Cut-off read from the data, not from the text of the source: active = GI50 up to about 1.1 µM and inactive = higher.

Tests used:
Test in all cases: NCI anticancer screen, dose series, 48 h
A549 = system: A549
CCRF-CEM = system: CCRF-CEM
HOP-62 = system: HOP-62
HT-29 = system: HT-29
KM-20L2 = system: KM-20L2
M19-MEL = system: M19-MEL
Malme-3M = system: Malme-3M
NCI-H522 = system: NCI-H522
OVCAR-4 = system: OVCAR-4
OVCAR-5 = system: OVCAR-5
RPMI-8226 = system: RPMI-8226
SK-OV-3 = system: SK-OV-3
SNB-75 = system: SNB-75
SR = system: SR
TK-10 = system: TK-10
A498 = system: A498
ACHN = system: ACHN
CAKI-1 = system: CAKI-1
HCC 2998 = system: HCC 2998
LOX IMVI = system: LOX IMVI

With `O=C(NN1C(=O)C(Cl)C1c1cccc([N+](=O)[O-])c1)c1ccccc1O` (centres undefined) the GI50 (A549) was > 100 µM (inactive), the GI50 (CCRF-CEM) was 35.6 µM (inactive) and the GI50 (HOP-62) was > 100 µM (inactive). The GI50 (HT-29) was > 100 µM (inactive), the GI50 (KM-20L2) was > 100 µM (inactive) and the GI50 (M19-MEL) was > 100 µM (inactive). The GI50 (Malme-3M) was 59.8 µM (inactive), the GI50 (NCI-H522) was 28.3 µM (inactive) and the GI50 (OVCAR-4) was > 100 µM (inactive). The GI50 (OVCAR-5) was > 100 µM (inactive), the GI50 (RPMI-8226) was > 100 µM (inactive) and the GI50 (SK-OV-3) was > 100 µM (inactive). The GI50 (SNB-75) was > 100 µM (inactive), the GI50 (SR) was > 100 µM (inactive) and the GI50 (TK-10) was > 100 µM (inactive).
For `O=C(Nc1ccc([N+](=O)[O-])cc1[N+](=O)[O-])C(=O)C(C(=O)c1ccc2ccccc2c1)C1OC(=O)c2ccccc21` (centres undefined), the GI50 (A498) was 17.6 µM (inactive), the GI50 (A549) was 25.5 µM (inactive) and the GI50 (ACHN) was 25.6 µM (inactive). The GI50 (CAKI-1) was 21.7 µM (inactive), the GI50 (CCRF-CEM) was 9.51 µM (inactive) and the GI50 (HCC 2998) was 12.4 µM (inactive). For the same molecule, the GI50 (HOP-62) was 22.4 µM (inactive), the GI50 (HT-29) was 16.7 µM (inactive) and the GI50 (KM-20L2) was 25.1 µM (inactive). The GI50 (LOX IMVI) was 16.7 µM (inactive), the GI50 (M19-MEL) was 12.2 µM (inactive) and the GI50 (NCI-H522) was 10.4 µM (inactive). For the same molecule, the GI50 (OVCAR-4) was 12.8 µM (inactive), the GI50 (OVCAR-5) was 20.2 µM (inactive) and the GI50 (RPMI-8226) was 9.44 µM (inactive). The GI50 (SK-OV-3) was 13.5 µM (inactive), the GI50 (SNB-75) was 14 µM (inactive) and the GI50 (SR) was 0.817 µM (active). For the same molecule, the GI50 (TK-10) was 24.1 µM (inactive).
`CC(=O)Nc1ccc(C2=N/C(=C\c3ccc(Cl)c(Cl)c3)C(=O)O2)cc1` was tested, and the GI50 (A498) was > 100 µM (inactive), the GI50 (A549) was > 100 µM (inactive) and the GI50 (ACHN) was > 100 µM (inactive). For the same molecule, the GI50 (CAKI-1) was > 100 µM (inactive), the GI50 (CCRF-CEM) was > 100 µM (inactive) and the GI50 (HCC 2998) was > 100 µM (inactive). For the same molecule, the GI50 (HOP-62) was > 100 µM (inactive), the GI50 (HT-29) was > 100 µM (inactive) and the GI50 (KM-20L2) was > 100 µM (inactive). For the same molecule, the GI50 (LOX IMVI) was 30 µM (inactive), the GI50 (M19-MEL) was 82.6 µM (inactive) and the GI50 (Malme-3M) was > 100 µM (inactive). For the same molecule, the GI50 (NCI-H522) was > 100 µM (inactive), the GI50 (OVCAR-4) was > 100 µM (inactive) and the GI50 (OVCAR-5) was > 100 µM (inactive). For the same molecule, the GI50 (RPMI-8226) was > 100 µM (inactive), the GI50 (SK-OV-3) was > 100 µM (inactive) and the GI50 (SNB-75) was 64.6 µM (inactive). For the same molecule, the GI50 (SR) was 68.9 µM (inactive) and the GI50 (TK-10) was > 100 µM (inactive).
In the case of `CC(C)C1CN(C(=O)OCc2ccccc2)C2N1C(=O)C2(C)OCc1ccccc1` (centres undefined), the GI50 (A498) is reported as 26.8 µM (inactive), the GI50 (A549) is reported as 29.2 µM (inactive) and the GI50 (ACHN) is reported as 33 µM (inactive). The GI50 (CCRF-CEM) was 28.1 µM (inactive), the GI50 (HCC 2998) was 36.4 µM (inactive) and the GI50 (HOP-62) was 94.4 µM (inactive). The GI50 (HT-29) was 42.2 µM (inactive), the GI50 (KM-20L2) was 43.9 µM (inactive) and the GI50 (LOX IMVI) was 27.2 µM (inactive). The GI50 (M19-MEL) was 32.4 µM (inactive), the GI50 (Malme-3M) was 31.8 µM (inactive) and the GI50 (OVCAR-4) was 41.9 µM (inactive). The GI50 (RPMI-8226) was 21.4 µM (inactive), the GI50 (SNB-75) was 16.7 µM (inactive) and the GI50 (SR) was 29.2 µM (inactive). The GI50 (TK-10) was 42.9 µM (inactive).
`COc1cc2c(c(OC)c1OC)-c1[nH]ncc1CC2` was tested, and the GI50 (A498) was > 100 µM (inactive), the GI50 (A549) was > 100 µM (inactive) and the GI50 (ACHN) was > 100 µM (inactive). The GI50 (CAKI-1) was 60.7 µM (inactive), the GI50 (CCRF-CEM) was > 100 µM (inactive) and the GI50 (HCC 2998) was > 100 µM (inactive). The GI50 (HOP-62) was > 100 µM (inactive), the GI50 (HT-29) was > 100 µM (inactive) and the GI50 (KM-20L2) was > 100 µM (inactive). For the same molecule, the GI50 (LOX IMVI) was > 100 µM (inactive), the GI50 (M19-MEL) was > 100 µM (inactive) and the GI50 (Malme-3M) was > 100 µM (inactive). The GI50 (OVCAR-5) was > 100 µM (inactive), the GI50 (SK-OV-3) was > 100 µM (inactive) and the GI50 (SNB-75) was > 100 µM (inactive). For the same molecule, the GI50 (SR) was > 100 µM (inactive) and the GI50 (TK-10) was > 100 µM (inactive).
`O=C(/C=C/CC(O)(c1ccccc1)c1ccccc1)Nc1ccccc1Cl` was tested, and the GI50 (A498) was > 100 µM (inactive), the GI50 (ACHN) was > 100 µM (inactive) and the GI50 (CAKI-1) was > 100 µM (inactive). For the same molecule, the GI50 (CCRF-CEM) was > 100 µM (inactive), the GI50 (HCC 2998) was > 100 µM (inactive) and the GI50 (HOP-62) was > 100 µM (inactive). The GI50 (HT-29) was > 100 µM (inactive), the GI50 (KM-20L2) was > 100 µM (inactive) and the GI50 (M19-MEL) was > 100 µM (inactive). The GI50 (Malme-3M) was 45.3 µM (inactive), the GI50 (NCI-H522) was > 100 µM (inactive) and the GI50 (OVCAR-4) was > 100 µM (inactive). The GI50 (OVCAR-5) was > 100 µM (inactive), the GI50 (RPMI-8226) was > 100 µM (inactive) and the GI50 (SK-OV-3) was > 100 µM (inactive). For the same molecule, the GI50 (SNB-75) was 28.1 µM (inactive), the GI50 (SR) was > 100 µM (inactive) and the GI50 (TK-10) was > 100 µM (inactive).
`Cn1c(=O)nc2n(-c3ccc(Cl)cc3Cl)c3ccccc3nc-2c1=O` was tested, and the GI50 (A549) was 1.62 µM (inactive), the GI50 (CAKI-1) was 3.08 µM (inactive) and the GI50 (HCC 2998) was 3.05 µM (inactive). For the same molecule, the GI50 (HOP-62) was 11.7 µM (inactive), the GI50 (HT-29) was 2.53 µM (inactive) and the GI50 (KM-20L2) was 0.861 µM (active). For the same molecule, the GI50 (M19-MEL) was 1.02 µM (active), the GI50 (Malme-3M) was 1.24 µM (inactive) and the GI50 (OVCAR-4) was 3.51 µM (inactive). The GI50 (OVCAR-5) was 33.8 µM (inactive), the GI50 (RPMI-8226) was 15.4 µM (inactive) and the GI50 (SK-OV-3) was 30.8 µM (inactive). For the same molecule, the GI50 (SR) was 19.2 µM (inactive) and the GI50 (TK-10) was 26.2 µM (inactive).
